The results in this text go back to patent US7674807B2, “Heterocycle-substituted n-phenyl-phthalamide derivatives, related compounds and their use as insecticides” (Bayer CropScience AG, priority 2004, dated 2010).

The subject of assay [1] is larva of Spodoptera litura. Nature of the assay: Test against larva of Spodoptera litura (leaf dip, sweet potato leaves). The format is in vivo. The conditions noted are these: 20 ppm concentration of the active component; third instar larvae; counted after 7 days; 25° C. In outline:
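Sweet potato leaves were dipped in emulsified compound diluted with water, air-dried, and given to 10 third-instar larvae per dish at 25° C, with fresh leaves added on days 2 and 4. Mortality was counted after 7 days and averaged over 2 dishes.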

Assay [2] has as its system larva of Cnaphalocrocis medinalis Guenee. The assay can be described thus: Test against larva of Cnaphalocrocis medinalis Guenee (sprayed paddy rice foliage). The assay is classed as in vivo. Particulars: 20 ppm concentration of the active component; second instar larvae; counted after 7 days; 25° C. In a few lines:
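Potted rice (Tamanishiki) sprayed with aqueous dilutions of compound at the prescribed concentration; air-dried leaf pieces placed in dishes with five 2nd-instar larvae at 25° C, fresh treated foliage added at days 2 and 4. Mortality counted at day 7, averaged over 2 dishes.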

For the compound `Cc1cc(C(C)n2nc(C(F)(F)F)cc2C(F)(F)F)ccc1NC(=O)c1cccc(I)c1C(=O)NC(C)(C)CS(C)(=O)=O` (stereo not drawn) [compound 567], the “controlling effect, rate of death” value in assay [1] and in assay [2] was 100% in each case.

Regarding `CSC[C@H](C)NC(=O)c1c(Cl)cccc1C(=O)Nc1ccc(C(C)n2nc(C(F)(F)F)nc2C(F)(F)F)cc1C` (stereo partly drawn) [compound 568], the “controlling effect, rate of death” value in assay [1] and in assay [2] was 100% throughout.

For the compound `CSC[C@H](C)NC(=O)c1c(I)cccc1C(=O)Nc1ccc(C(C)n2nc(C(F)(F)F)nc2C(F)(F)F)cc1C` (stereo partly drawn) [compound 571], the “controlling effect, rate of death” value in assay [1] and in assay [2] was 100% throughout.

`Cc1cc(C(C)n2nc(C(F)(F)F)nc2C(F)(F)F)ccc1NC(=O)c1cccc(I)c1C(=O)N[C@@H](C)CS(C)(=O)=O` (stereo partly drawn) [compound 573]: the “controlling effect, rate of death” value in assay [1] and in assay [2] was 100% each time.

For `CSC[C@H](C)NC(=O)c1c(Cl)cccc1C(=O)Nc1ccc(C(C)n2nc(C(F)(F)F)nc2C(F)(F)C(F)(F)F)cc1C` (stereo partly drawn) [compound 574], the “controlling effect, rate of death” value in assay [1] and in assay [2] was 100% in each case.

Turning to `CSC[C@H](C)NC(=O)c1c(Cl)cccc1C(=O)Nc1ccc(C(C)n2nc(C(F)(F)C(F)(F)F)nc2C(F)(F)F)cc1C` (stereo partly drawn) [compound 578], the “controlling effect, rate of death” value in assay [1] and in assay [2] was 100% each time.

As to `Cc1cc(C(C)n2nc(C(F)(F)C(F)(F)F)nc2C(F)(F)F)ccc1NC(=O)c1cccc(Cl)c1C(=O)N[C@@H](C)CS(C)(=O)=O` (stereo partly drawn) [compound 580], the “controlling effect, rate of death” value in assay [1] and in assay [2] was 100% in each case.

`CSC[C@H](C)NC(=O)c1c(Cl)cccc1C(=O)Nc1ccc(Cn2nc(C(F)(F)C(F)(F)F)cc2C(F)(F)C(F)(F)F)cc1C` [compound 626]: the “controlling effect, rate of death” value in assay [1] and in assay [2] was 100% each time.

As to `CSC[C@H](C)NC(=O)c1c(Cl)cccc1C(=O)Nc1ccc(Cn2cc(C(F)(F)C(F)(F)F)c(C(F)(F)F)n2)cc1C` [compound 637], the “controlling effect, rate of death” value in assay [1] and in assay [2] was 100% in each case.

With `Cc1cc(Cn2cc(C(F)(F)C(F)(F)F)c(C(F)(F)F)n2)ccc1NC(=O)c1cccc(Cl)c1C(=O)N[C@@H](C)C[S+](C)[O-]` (stereo partly drawn) [compound 638], the “controlling effect, rate of death” value in assay [1] and in assay [2] was 100% in each case.

Regarding `Cc1cc(Cn2cc(C(F)(F)C(F)(F)F)c(C(F)(F)F)n2)ccc1NC(=O)c1cccc(Cl)c1C(=O)N[C@@H](C)CS(C)(=O)=O` [compound 639], the “controlling effect, rate of death” value in assay [1] and in assay [2] was 100% in each case.

In the case of `CSC[C@H](C)NC(=O)c1c(I)cccc1C(=O)Nc1ccc(Cn2cc(C(F)(F)C(F)(F)F)c(C(F)(F)F)n2)cc1C` [compound 640], the “controlling effect, rate of death” value in assay [1] and in assay [2] was 100% throughout.

Turning to `Cc1cc(Cn2cc(C(F)(F)C(F)(F)F)c(C(F)(F)F)n2)ccc1NC(=O)c1cccc(I)c1C(=O)N[C@@H](C)C[S+](C)[O-]` (stereo partly drawn) [compound 641], the “controlling effect, rate of death” value in assay [1] and in assay [2] was 100% each time.

`Cc1cc(Cn2cc(C(F)(F)C(F)(F)F)c(C(F)(F)F)n2)ccc1NC(=O)c1cccc(I)c1C(=O)N[C@@H](C)CS(C)(=O)=O` [compound 642]: the “controlling effect, rate of death” value in assay [1] and in assay [2] was 100% in each case.

Take `CSC[C@H](C)NC(=O)c1c(Cl)cccc1C(=O)Nc1ccc(Cn2cc(C(F)(F)C(F)(F)C(F)(F)F)c(C(F)(F)F)n2)cc1C` [compound 643]: the “controlling effect, rate of death” value in assay [1] and in assay [2] was 100% in each case.

For `CSC[C@H](C)NC(=O)c1c(I)cccc1C(=O)Nc1ccc(Cn2cc(C(F)(F)C(F)(F)C(F)(F)F)c(C(F)(F)F)n2)cc1C` [compound 644], the “controlling effect, rate of death” value in assay [1] and in assay [2] was 100% each time.

On to `CSC[C@H](C)NC(=O)c1c(Cl)cccc1C(=O)Nc1ccc(Cn2cc(C(F)(F)C(F)(F)C(F)(F)C(F)(F)F)c(C(F)(F)F)n2)cc1C` [compound 645], for which the “controlling effect, rate of death” value in assay [1] and in assay [2] was 100% in each case.

In the case of `Cc1cc(Cn2cc(C(F)(F)C(F)(F)C(F)(F)C(F)(F)F)c(C(F)(F)F)n2)ccc1NC(=O)c1cccc(Cl)c1C(=O)N[C@@H](C)C[S+](C)[O-]` (stereo partly drawn) [compound 646], the “controlling effect, rate of death” value in assay [1] and in assay [2] was 100% in each case.

On to `Cc1cc(Cn2cc(C(F)(F)C(F)(F)C(F)(F)C(F)(F)F)c(C(F)(F)F)n2)ccc1NC(=O)c1cccc(Cl)c1C(=O)N[C@@H](C)CS(C)(=O)=O` [compound 647], for which the “controlling effect, rate of death” value in assay [1] and in assay [2] was 100% each time.

Consider `CSC[C@H](C)NC(=O)c1c(I)cccc1C(=O)Nc1ccc(Cn2cc(C(F)(F)C(F)(F)C(F)(F)C(F)(F)F)c(C(F)(F)F)n2)cc1C` [compound 648], for which the “controlling effect, rate of death” value in assay [1] and in assay [2] was 100% each time.

On to `Cc1cc(Cn2cc(C(F)(F)C(F)(F)C(F)(F)C(F)(F)F)c(C(F)(F)F)n2)ccc1NC(=O)c1cccc(I)c1C(=O)N[C@@H](C)C[S+](C)[O-]` (stereo partly drawn) [compound 649], for which the “controlling effect, rate of death” value in assay [1] and in assay [2] was 100% in each case.

Regarding `Cc1cc(Cn2cc(C(F)(F)C(F)(F)C(F)(F)C(F)(F)F)c(C(F)(F)F)n2)ccc1NC(=O)c1cccc(I)c1C(=O)N[C@@H](C)CS(C)(=O)=O` [compound 650], the “controlling effect, rate of death” value in assay [1] and in assay [2] was 100% throughout.

For `Cc1cc(Cn2cc(C(F)(F)C(F)(F)F)c(C(F)(F)C(F)(F)F)n2)ccc1NC(=O)c1cccc(I)c1C(=O)N[C@@H](C)C[S+](C)[O-]` (stereo partly drawn) [compound 655], the “controlling effect, rate of death” value in assay [1] and in assay [2] was 100% throughout.

As for `Cc1cc(Cn2cc(C(F)(F)C(F)(F)F)c(C(F)(F)C(F)(F)F)n2)ccc1NC(=O)c1cccc(I)c1C(=O)N[C@@H](C)CS(C)(=O)=O` [compound 656], the “controlling effect, rate of death” value in assay [1] and in assay [2] was 100% each time.

On to `CSC[C@H](C)NC(=O)c1c(Cl)cccc1C(=O)Nc1ccc(Cn2cc(C(F)(F)C(F)(F)C(F)(F)F)c(C(F)(F)C(F)(F)F)n2)cc1C` [compound 657], for which the “controlling effect, rate of death” value in assay [1] and in assay [2] was 100% in each case.

With `Cc1cc(Cn2cc(C(F)(F)C(F)(F)C(F)(F)F)c(C(F)(F)C(F)(F)F)n2)ccc1NC(=O)c1cccc(Cl)c1C(=O)N[C@@H](C)C[S+](C)[O-]` (stereo partly drawn) [compound 658], the “controlling effect, rate of death” value in assay [1] and in assay [2] was 100% each time.

Turning to `Cc1cc(Cn2cc(C(F)(F)C(F)(F)C(F)(F)F)c(C(F)(F)C(F)(F)F)n2)ccc1NC(=O)c1cccc(Cl)c1C(=O)N[C@@H](C)CS(C)(=O)=O` [compound 659], the “controlling effect, rate of death” value in assay [1] and in assay [2] was 100% throughout.

On to `CSC[C@H](C)NC(=O)c1c(I)cccc1C(=O)Nc1ccc(Cn2cc(C(F)(F)C(F)(F)C(F)(F)F)c(C(F)(F)C(F)(F)F)n2)cc1C` [compound 660], for which the “controlling effect, rate of death” value in assay [1] and in assay [2] was 100% each time.

With `Cc1cc(Cn2cc(C(F)(F)C(F)(F)C(F)(F)F)c(C(F)(F)C(F)(F)F)n2)ccc1NC(=O)c1cccc(I)c1C(=O)N[C@@H](C)C[S+](C)[O-]` (stereo partly drawn) [compound 661], the “controlling effect, rate of death” value in assay [1] and in assay [2] was 100% each time.

With `Cc1cc(Cn2cc(C(F)(F)C(F)(F)C(F)(F)F)c(C(F)(F)C(F)(F)F)n2)ccc1NC(=O)c1cccc(I)c1C(=O)N[C@@H](C)CS(C)(=O)=O` [compound 662], the “controlling effect, rate of death” value in assay [1] and in assay [2] was 100% in each case.

Turning to `CSC[C@H](C)NC(=O)c1c(Cl)cccc1C(=O)Nc1ccc(Cn2cc(C(F)(F)C(F)(F)C(F)(F)C(F)(F)F)c(C(F)(F)C(F)(F)F)n2)cc1C` [compound 663], the “controlling effect, rate of death” value in assay [1] and in assay [2] was 100% each time.

With `CSC[C@H](C)NC(=O)c1c(I)cccc1C(=O)Nc1ccc(Cn2cc(C(F)(F)C(F)(F)C(F)(F)C(F)(F)F)c(C(F)(F)C(F)(F)F)n2)cc1C` [compound 664], the “controlling effect, rate of death” value in assay [1] and in assay [2] was 100% each time.

Regarding `CSC[C@H](C)NC(=O)c1c(Cl)cccc1C(=O)Nc1ccc(Cn2cc(C(F)(F)C(F)(F)F)c(C(F)(F)C(F)(F)C(F)(F)F)n2)cc1C` [compound 665], the “controlling effect, rate of death” value in assay [1] and in assay [2] was 100% each time.

Regarding `CSC[C@H](C)NC(=O)c1c(I)cccc1C(=O)Nc1ccc(Cn2cc(C(F)(F)C(F)(F)F)c(C(F)(F)C(F)(F)C(F)(F)F)n2)cc1C` [compound 666], the “controlling effect, rate of death” value in assay [1] and in assay [2] was 100% throughout.

`CSC[C@H](C)NC(=O)c1c(Cl)cccc1C(=O)Nc1ccc(Cn2cc(C(F)(F)C(F)(F)C(F)(F)F)c(C(F)(F)C(F)(F)C(F)(F)F)n2)cc1C` [compound 667]: the “controlling effect, rate of death” value in assay [1] and in assay [2] was 100% each time.

Turning to `Cc1cc(Cn2cc(C(F)(F)C(F)(F)C(F)(F)F)c(C(F)(F)C(F)(F)C(F)(F)F)n2)ccc1NC(=O)c1cccc(Cl)c1C(=O)N[C@@H](C)C[S+](C)[O-]` (stereo partly drawn) [compound 668], the “controlling effect, rate of death” value in assay [1] and in assay [2] was 100% in each case.
